Data published in patent publication US20250171821A1, “HIF-1 ACTIVATORS AND USES THEREOF” (Ramot at Tel-Aviv University Ltd., priority 2022, published 2025).
Where a name gives a salt, the structure may show the parent alone. Where no end group is shown, it is not given here.

Experiments:
NIH/3T3 cell line [1] = assay: Cell confluence / number of cells per image in NIH/3T3 cells; format: cell-based, mouse; settings: 48 hours; for toxicity suggested by number of cells: 5-0.02 μM
Procedure: (§1) Embryonic mouse fibroblast NIH/3T3 cell line (ATCC) were seeded at a concentration of 50*10^3 cells/well on 96 well glass bottom plate (P96-1.5H-N, Cellvis) for the immunofluorescence experiment and on cell culture microplate, 96 well, PS, F-Bottom (655090, greiner) for the viability experiment. The cells were cultured with Dulbecco's modified Eagle's medium (DMEM) supplemented with 10% fetal calf serum, 1% Penicillin-Streptomycin solution and 1% L-glutamine (All purchased from Rhenium). At 24 hours post seeding, cells were treated for another 48 hours by replacing them with the cell medium supplemented with a serial dilution (5-0.02 μM, factor dilution of 2) of the ML228, Daprodustat, Enarodustat, Molidustat, Vadadustat or Roxadustat molecules dissolved in DMSO. The final DMSO concentration in the cell medium was 0.01%. Cells were maintained in an incubator at 37° C. in a humidified atmosphere containing 5% CO2.
Image acquisition and quantification were performed by Incucyte SX5 (Sartorius) using software version 2022B Rev2. A standard scan was done for 9 images per well using 20× objective, 2 optical modules (green at excitation/emission of 453-485 nm/494-533 nm in 300 msec acquisition time, and near-IR at excitation/emission of 648-674 nm/685-756 nm in 400 msec acquisition time, including Phase channel) following immunofluorescence protocol. For the image analysis, 2-6 replicates per condition were used. Using the Basic Analyzer mode, “Phase Object Confluence (%)” was acquired using the Phase channel. This measurement is the percentage of the image area occupied by cells. “Total Collagen-I Integrated Intensity Per Image (GCU×μm^2/Image)” was acquired using the green optical module. GCU stands for Green calibrated Unit, while this measurement is the total sum of the Collagen-I objects' fluorescent intensity in the image. “#Cells (Per image)” was acquired by the near-IR optical module. This measurement was calculated by counting the number of nuclei per image.
Multiple comparisons were performed by ordinary one-way ANOVA followed by Dunnett's post-hoc statistical hypothesis for comparing each condition mean to the control mean. Statistical analysis was done using GraphPad Prism version 10.0.0 for Windows, GraphPad Software, Boston, Massachusetts USA, worldwideweb(dot)graphpad(dot)com. For statistical analysis, significance was set as (*) p≤0.05; (**) p≤0.01; (***) p≤0.001; (****) p≤0.0001 and (ns; not significant) p>0.05.

NIH/3T3 cell line [2] = assay: Collagen type 1 immunofluorescence in NIH/3T3 cells (Incucyte); format: cell-based, mouse; settings: 48 hours; for concentrations with significant increase of collagen type 1 normalized to number of cells vs untreated cells: serial dilution 5-0.02 μM, one-way ANOVA
Procedure: as §1
At 48 hours post treatment with either Daprodustat, Enarodustat, Molidustat, Vadadustat or Roxadustat, cells were fixed for 10 minutes together with their media with 8% paraformaldehyde (PFA, Electron Microscopy Sciences) dissolved in phosphate-buffered saline (PBS, Invitrogen) to a final concentration of 4% PFA, without any wash to avoid cells detachment from the glass. Cells were briefly washed four times with ice-cold PBS to remove the PFA and kept overnight at 4° C. The following day, a blocking solution which contains 1.5% Bovine Serum Albumin (Sigma Aldrich) dissolved in PBS was applied for 30 minutes, followed by an overnight incubation at 4° C. with recombinant rabbit anti-mouse Collagen-I 1° antibody (primary Ab) [EPR24331-53] (ab270993, Abcam), dissolved in the blocking solution (1:1000 dilution). The following day, cells were washed for 3 times with PBS (5 minutes each), followed by immunostaining with goat anti-rabbit IgG H&L (Alexa Fluor® 488) 2° antibody (secondary Ab) (ab150077, Abcam) dissolved in blocking solution (1:1000 dilution). Cells were washed again for 3 times with PBS (5 minutes each), stained for 30 minutes with DRAQ5™ (ab108410, Abcam) for nuclei staining dissolved in PBS (1:1000 dilution), and washed once again with PBS. For the ML228 experiment, cells were washed with PBS before applying 4% PFA dissolved in PBS. Then, fixed cells were additionally permeabilized with 0.2% Triton™ X-100 (Merck) dissolved in PBS, additionally stained with Phalloidin-Atto 594 (51927, Sigma Aldrich) for F-Actin staining for 1 hour (1:250 dilution) together with the aforementioned secondary antibody, followed by 10 minutes incubation with DAPI staining solution (ab228549, Abcam) for nuclei staining dissolved in PBS (1:1000 dilution).
Images were taken using a ZEISS LSM 900 in wide-field or in the LSM confocal detection mode (ML228 experiment), using Zen 3.1. Fluorescence readouts were obtained at excitation/emission: 353/465 nm (DAPI), 493/517 nm (Collagen-I), 590/618 (F-Actin) and 647/683 nm (DRAQ5) using a Plan-Apochromat 20×/0.8 M27 objective.
Image acquisition and quantification were performed by Incucyte SX5 (Sartorius) using software version 2022B Rev2. A standard scan was done for 9 images per well using 20× objective, 2 optical modules (green at excitation/emission of 453-485 nm/494-533 nm in 300 msec acquisition time, and near-IR at excitation/emission of 648-674 nm/685-756 nm in 400 msec acquisition time, including Phase channel) following immunofluorescence protocol. For the image analysis, 2-6 replicates per condition were used. Using the Basic Analyzer mode, “Phase Object Confluence (%)” was acquired using the Phase channel. This measurement is the percentage of the image area occupied by cells. “Total Collagen-I Integrated Intensity Per Image (GCU×μm^2/Image)” was acquired using the green optical module. GCU stands for Green calibrated Unit, while this measurement is the total sum of the Collagen-I objects' fluorescent intensity in the image. “#Cells (Per image)” was acquired by the near-IR optical module. […]

MG-63 cells = assay: Collagen-I immunofluorescence in MG-63 cells treated with iron chelator; format: cell-based, human; settings: 48 hours
Procedure: For microscopy images, cells were cultured in a 24-well plate and incubated with medium supplemented with the indicated concentrations of the treating entity (e.g., peptides or DFO) at 37° C. under 5% CO2. Cells were then washed additional three times with cold phosphate-buffered saline (PBS), following a 20 minute fixation in a 4% paraformaldehyde (PFA) in PBS and extensively washed three times with PBS to remove the PFA, followed by a 20 minute wash with blocking and penetration solution (PBS with 0.1% Triton X-100 and 2% BSA). Fixed cells were incubated with antibodies for 1 hour at 25° C., washed, and developed together with fluorescence-tagged secondary antibodies (Alexa 488 and 647, Abcam). Cell nuclei were stained with 1 mg/mL 4′,6-diamidino-2-phenylindole (DAPI Staining Solution ab228549, Abcam). Images were taken using a ZEISS LSM 900 in confocal mode, using Zen 3.1. Fluorescence readouts were obtained at ex/em of 358/461, 495/519 nm, and 652/668 nm for blue, green, and red, respectively.
The present inventors have incubated MG-63 cells with deferoxamine mesylate (DFO), an iron chelator, to explore the possibility of enhancing Collagen-I levels in these cells.

[3] = molecular target: T1, PHD2/EGLN1 (HIF-prolyl hydroxylase 2) (human, UniProt Q9GZT9 181-426); assay: fluorescence polarization; PHD protein titrated into 200 nM FITC-labeled peptide; single site fit
T1 construct: The protein was expressed as a cleavable GST fusion and the eluate of the GST column was used; also called PHD enzyme; PHD protein
Procedure: Fluorescence polarization (FP) assay—Fluorescence Polarization (FP) measurements were performed on samples arrayed in a 96-well plate using Biotek HybridH1 reader equipped with a polarized optic system. Binding assay was evaluated by adding variable concentrations of PHD protein into 200 nM of FITC-labeled peptides. Experimental polarization data were fitted using GraphPad Prism9 into a single site binding model, with error bars representing standard deviation.

T1 sequence (Q9GZT9 other isoform, or with tags, fused parts or gaps limits assumed): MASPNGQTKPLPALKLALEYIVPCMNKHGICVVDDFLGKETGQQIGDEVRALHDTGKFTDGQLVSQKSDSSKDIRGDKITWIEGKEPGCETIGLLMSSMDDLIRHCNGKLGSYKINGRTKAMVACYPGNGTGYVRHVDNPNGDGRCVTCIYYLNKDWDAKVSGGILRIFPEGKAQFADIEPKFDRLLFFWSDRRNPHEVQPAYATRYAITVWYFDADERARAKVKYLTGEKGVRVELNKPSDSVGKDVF

O=C(O)CNC(=O)c1c(O)cc(CCc2ccccc2)n2ncnc12 [Enarodustat, N-[[7-Hydroxy-5-(2-phenylethyl)[1,2,4]triazolo[1,5-a]pyridin-8-yl]carbonyl]glycine]
toxicity suggested by number of cells (NIH/3T3 cell line [1]): no toxicity
number of cells compared to untreated cells (NIH/3T3 cell line [1]; serial dilution 5-0.02 μM): no significant difference
concentrations with significant increase of collagen type 1 normalized to number of cells vs untreated cells (NIH/3T3 cell line [2]): 0.31 to 5 µM

O=C(O)CNC(=O)c1ncc(-c2cccc(Cl)c2)cc1O [Vadadustat, N-[[5-(3-Chlorophenyl)-3-hydroxy-2-pyridinyl]carbonyl]glycine]
toxicity suggested by number of cells (NIH/3T3 cell line [1]): no toxicity
number of cells compared to untreated cells (NIH/3T3 cell line [1]; serial dilution 5-0.02 μM): significantly higher
collagen type 1 expression compared to untreated cells (NIH/3T3 cell line [2]; 0.02-5 μM): significant increase

Cc1nc(C(=O)NCC(=O)O)c(O)c2ccc(Oc3ccccc3)cc12 [Roxadustat, N-[(4-Hydroxy-1-methyl-7-phenoxy-3-isoquinolinyl)carbonyl]glycine]
toxicity suggested by number of cells (NIH/3T3 cell line [1]): no toxicity
number of cells compared to untreated cells (NIH/3T3 cell line [1]; serial dilution 5-0.02 μM): significantly higher
concentrations with significant increase of collagen type 1 normalized to number of cells vs untreated cells (NIH/3T3 cell line [2]): 0.08 to 5 µM

O=C(O)CNC(=O)C1C(=O)N(C2CCCCC2)C(=O)N(C2CCCCC2)C1=O [Daprodustat, N-[(1,2-Dicyclohexylhexahydro-2,4,6-trioxo-5-pyrimidinyl)carbonyl]glycine]
number of cells compared to untreated cells (NIH/3T3 cell line [1]; 0.08 μM Daprodustat, p<0.0001): lower number of cells
toxicity suggested by number of cells (NIH/3T3 cell line [1]): no toxicity
number of cells compared to untreated cells (NIH/3T3 cell line [1]; serial dilution 5-0.02 μM): no significant difference
concentrations with significant increase of collagen type 1 normalized to number of cells vs untreated cells (NIH/3T3 cell line [2]): 0.31 to 5 µM

O=c1c(-n2ccnn2)c[nH]n1-c1cc(N2CCOCC2)ncn1 [Molidustat, 1,2-Dihydro-2-[6-(4-morpholinyl)-4-pyrimidinyl]-4-(1H-1,2,3-triazol-1-yl)-3H-pyrazol-3-one]
toxicity suggested by number of cells (NIH/3T3 cell line [1]): toxic effect
number of cells compared to untreated cells (NIH/3T3 cell line [1]; serial dilution 5-0.02 μM): significantly lower
concentrations with significant increase of collagen type 1 normalized to number of cells vs untreated cells (NIH/3T3 cell line [2]): 0.63 to 5 µM

CC(=O)N(O)CCCCCNC(=O)CCC(=O)N(O)CCCCCNC(=O)CCC(=O)N(O)CCCCCN [DFO, Deferoxamine mesylate]
DFO concentration giving maximal Collagen-I levels (MG-63 cells; normalized to β-tubulin): 10 to 20 µM
Collagen-I production (MG-63 cells; even at low DFO concentrations such as 0.15 μM): increased Collagen-I production

B1: EPAS1 peptide (FITC-labeled) (peptide)
peptide: ELDLETLAPYIPMDGEDFQL
modifications: also: FITC label, position not given here
notes: The FP assay used 200 nM of FITC-labeled peptide; also called EPAS1-derived peptide
Kd [3]: 4 µM

B2: HIF peptide (FITC-labeled) (peptide)
peptide: DLDLEALAPYIPADDDFQLR
modifications: also: FITC label, position not given here
notes: The FP assay used 200 nM of FITC-labeled peptide; also called HIF1 peptide
Kd [3]: 7 µM
